Test results published in patent EP0311724A1, “Anxiolytic-R-N-(1-azabicyclo[2.2.2]oct-3-yl) benzamides and thiobenzamides” (SYNTHELABO, priority 1987, dated 1989).
Counter-ions that a name gives are not always drawn.

Key:
mouse = assay: Exploratory behaviour of the mouse in a two-compartment box (method of Crawley and Goodwin); assay type: in vivo; set-up: key: +: significant increase vs. control; -: significant decrease vs. control; ns: no significant change vs. control; conditions: dose 0.1-10 mg/kg ip, change vs. control
Method: (§1) The anxiolytic activity was determined by the method of Costall et al details of which are to be found in the pharmacology examples later in this specification. In brief, the method involves seeing whether the compound under test reduced the natural anxiety of mice in brightly-lit areas. Anxiolytic activity was also assessed by the method of Crawley and Goodwin (Pharm. Biochem. Behavior (1980), 13,167-170).
Compounds of the invention have been studied in the laboratory animal to evaluate their anxiolytic activity. As a typical compound of the invention, R(+)-4-Amino-N-(3-quinuclidinyl)-5-chloro-2-methoxy benzamide dihydrochloride (R(+)-4-Amino-N-(1-azabicyclo[2.2.2]oct-3-yl)-5-chloro-2-methoxybenzamide dihydrochloride), the compound of Example 14, was investigated for its anxiolytic activity, which was compared with that of the racemate (unresolved product of Example 2) and the corresponding enantiomer of absolute configuration S (product of Comparison Example 1).
The method used in this example was that described by Crawley and Goodwin (Pharm. Biochem. Behavior (1980) 13, 167-170), where aspects of behaviour of the mouse are compared in a lit zone and a dark zone of a two-compartment box.

[1] = tested on: Naive male albino BKW mice; assay: Anti-anxiety test (light/dark two-compartment box, method of Costall et al); assay type: in vivo; conditions: 40 min pretreatment, n = 5
Method: as §1
Naive male albino BKW mice, 25-30g, were used in all experiments. 10 mice were normally housed in each cage and given free access to food and water. The mice were kept on a 12h light and 12h dark cycle with lights off at 8.00am and on at 8.00pm.
The apparatus used for the detection of changes in anxiety consisted of an open topped box (45 x 27 x 27cm high) one third painted black and illuminated under a dim red light (1 x 60W) and partitioned from the remainder of the box which was painted white and brightly illuminated with a 100W light source located 17cm above the box. Access between these areas was enabled by means of a 7.5 x 7.5cm opening located at floor level in the centre of the partition. The floor area was lined into 9cm squares. The test was conducted between 13.00 and 18.00h in a quiet, darkened room illuminated with red light only. Animals were thus taken in a dark container from a dark holding room to the dark testing room.
Animals that had received drug or vehicle injections were placed individually into the centre of the white area and their behaviour observed over a 5 min period by remote video recording.
Animals were used in treatment groups of 5 and vehicle controls were run on each day of testing. Results were anlysed using Single-Factor Analysis of Variance followed by Dunnett's procedure for comparing all treatments with control.
Compounds of Example 14 and Comparison Example 1 were dissolved in minimum HCI made up to volume with distilled water. Doses were expressed as the base and were administered as a 40 min pretreatment in a volume of 1 mIi100g body weight. Administration was by the subcutaneous route.

[2] = Black Section, 0.1 mg/kg subcutaneous
[3] = Black Section, 1.0 mg/kg subcutaneous
[4] = Black Section, 10.0 mg/kg subcutaneous
[5] = White Section, 0.1 mg/kg subcutaneous
[6] = White Section, 1.0 mg/kg subcutaneous
[7] = White Section, 10.0 mg/kg subcutaneous

Compound | Movement activity (mouse; Dark zone) | Straightenings (mouse; Dark zone) | Movement activity (mouse; Light zone) | Straightenings (mouse; Light zone) | Crossings/5min [1, 2] | Rearings/5 min [1, 2] | Crossings/5min [1, 3] | Rearings/5 min [1, 3] | Crossings/5min [1, 4] | Rearings/5 min [1, 4] | Crossings/5min [1, 5] | Rearings/5 min [1, 5] | Crossings/5min [1, 6] | Rearings/5 min [1, 6] | Crossings/5min [1, 7] | Rearings/5 min [1, 7]
COc1cc(N)c(Cl)cc1C(=O)N[C@@H]1CN2CCC1CC2 [Comparison Example 1, S(-)-4-Amino-N-(3-quinuclidinyl)-5-chloro-2-methoxybenzamide hydrochloride] | ns | ns | ns | ns | 39.4±3.0 | 35.2±3.1 | 37.6±3.8 | 38.1±3.2 | 50.8±5.2 | 48.3±4.1 | 23.2±2.3 | 23.0±2.1 | 26.8±2.7 | 21.5±2.0 | 24.7±2.1 | 24.0±1.9
COc1cc(N)c(Cl)cc1C(=O)NC1CN2CCC1CC2 (racemic) [Compound of Example 2] | - | - | + | + |  |  |  |  |  |  |  |  |  |  |  | 
COc1cc(N)c(Cl)cc1C(=O)N[C@H]1CN2CCC1CC2 [Example 14, R(+)-4-Amino-N-(3-quinuclidinyl)-5-chloro-2-methoxybenzamide hydrochloride] | - | - | + | + | 14.6±1.5^+++ | 13.6±1.1^+++ | 13.6±1.2^+++ | 13.0±1.4^+++ | 17.6±1.4^+++ | 14.7±1.2^+++ | 52.9±5.0 | 64.8±6.0 | 87.4±7.6 | 82.4±7.4 | 73.7±7.2 | 76.2±7.6
